{"source": "patent US8211893B2", "about": "“Protein kinase C zeta inhibition to treat diabetic retinopathy” (The Penn State Research Foundation, priority 2006, dated 2012)", "key": {"[1]": {"test_system": "bovine retinal endothelial cells (BREC)", "experiment": "In vitro permeability assay, VEGF stimulated 70 kDa RITC-dextran flux across BREC monolayer on transwell filters", "assay_type": "cell-based", "conditions": "for effect on VEGF stimulated endothelial permeability to 70 kDa RITC-dextran: peptide inhibitor 50 nM", "protocol": "Endothelial cells are grown to confluence on transwell filters. After the cells have grown to confluence, an additional 2 to 4 days is necessary to allow formation of a tight barrier. This may vary depending on the cell preparation.\nSolute flux is measured by applying 10 micromolar or 20 micromolar RITC-dextran or FITC-BSA to the apical chamber of inserts with a confluent endothelial cell monolayer. The specific experiment may dictate when to perturb the system with, for example, a PKC inhibitor, relative to the time of measuring flux. Remember to consider the time for the perturbation to effect transport rates, for example, time for synthesis and assembly or disassembly of the junctional complex.\nOne half-hour after addition of fluorescent solute, 50 microliter samples are taken from the basolateral chamber. This is continued on the half-hour for up to four hours. The samples are placed into the 96 well black/clear bottom plate. A sample is taken from the apical chamber at the last time point and also placed in the 96 well plate. […] Fluorescence of each aliquot is quantified on a fluorescence plate reader. We use a FluorImager 595. A blank sample with media only but no fluorescent marker should be used for background subtraction. The rate of diffusive flux (Po) is calculated by the following formula at each time point: Po=[(FA/Δt)VA]/(FLA) where Po=diffusive flux (cm/s); FA=basolateral fluorescence; FL=apical fluorescence; Δt=change in time; A=surface area of the filter (cm^2); VA=volume of the basolateral chamber (cm^3). Note that unless the volume removed from the basolateral chamber is replaced, the volume in the basolateral chamber changes for each time point calculated. The data may be reduced as a rate over the total time course of the experiment if the change remains linear. This is done by plotting the change in fluorescence accumulated in the basolateral chamber corrected for fluorescence in the apical chamber, volume and area versus time and then determining the slope of the straight line or rate of diffusive flux, Po.\nThe fluorescence obtained from each time point is normalized to the fluorescence in the apical chamber. Next this ratio is corrected for the volume in the bottom chamber and this corrected ratio is plotted verses time to determine the rate of fluorescent molecule accumulation by obtaining the slope. Finally, this slope is converted from minutes to seconds and divided by the area of the filter yielding the diffusive flux in cm/s.\nBovine retinal endothelial cells (BREC) are grown to confluence on transwell filters (Costar) and treated with hydrocortisone (100 nM) to induce barrier properties. PKC zeta peptide inhibitor (50 nM, Calbiochem) is applied to the cells 30 min before addition of fluorescent-labeled tracer and VEGF (50 ng/mL, R&D Systems) is applied to the cells for 15 min before addition of tracer. RITC-labeled 70 kDa dextran (Sigma) is used as a tracer for cell permeability measures and is applied to the apical chamber at 10 micromolar. Samples are drawn from the basolateral chamber over a 4 h time course and the rate of tracer accumulation is used to determine monolayer permeability, Po, in cm/s. FIG. 2 illustrates the results of the use the myristoylated peptide inhibitor of PKC zeta on endothelial permeability to 70 kDa RITC-dextran.\nBovine retinal endothelial cells (BREC) are grown to confluence on transwell filters (Costar) and treated with hydrocortisone (100 nM) to induce barrier properties. PKC zeta peptide inhibitor (PKCζ 1) of SEQ ID No. 1 (Calbiochem) is applied to the cells at concentrations of 6.25 nM, 12.5 nM, 25 nM, and 50 nM, 30 min before addition of fluorescent-labeled tracer and VEGF (50 ng/mL, R&D Systems) is applied to the cells for 15 min before addition of tracer. […]"}, "[2]": {"molecular_target": "T1, PKC-zeta (Homo sapiens, UniProt Q05513)", "T1 sequence (Q05513 1-592)": "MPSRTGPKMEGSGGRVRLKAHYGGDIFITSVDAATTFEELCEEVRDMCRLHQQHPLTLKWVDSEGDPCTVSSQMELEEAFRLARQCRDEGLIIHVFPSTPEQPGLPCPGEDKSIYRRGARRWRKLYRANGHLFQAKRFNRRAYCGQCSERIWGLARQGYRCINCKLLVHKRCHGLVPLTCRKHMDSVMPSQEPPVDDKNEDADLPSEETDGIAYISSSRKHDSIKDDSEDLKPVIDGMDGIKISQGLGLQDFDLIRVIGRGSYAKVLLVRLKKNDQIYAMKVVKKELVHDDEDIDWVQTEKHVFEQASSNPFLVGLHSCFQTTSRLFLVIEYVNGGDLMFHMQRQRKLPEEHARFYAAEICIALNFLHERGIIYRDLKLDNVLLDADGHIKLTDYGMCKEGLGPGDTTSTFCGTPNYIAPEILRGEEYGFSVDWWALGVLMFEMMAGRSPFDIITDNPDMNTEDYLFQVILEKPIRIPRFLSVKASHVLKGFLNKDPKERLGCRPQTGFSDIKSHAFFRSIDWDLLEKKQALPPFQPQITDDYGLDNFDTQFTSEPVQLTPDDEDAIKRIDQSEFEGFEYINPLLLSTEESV", "experiment": "In vitro screen for PKC zeta inhibitors, Kinase-Glo Luminescent Kinase assay with CREBtide substrate", "assay_type": "biochemical", "set-up": "purchased Biomol International SE-413", "conditions": "tested at 100 micromolar; relative to compound of formula (I)", "protocol": "A screen for PKCzeta inhibitors was developed using recombinant human enzyme from Biomol International (SE-413) and CREBtide (Biomol P195) as the substrate. PKCzeta is incubated for 8 min at 30° C. in 50 microliters of buffer containing 5 mM MgCl2, 100 micromolar Na3VO4, 100 micromolar NaP2O7, 1 mM NaF. 100 micromolar PMSF, 50 mM Tris (pH 7.5), 4 micrograms of phosphatidylserine, 50 micromolar ATP, and a substrate peptide, KRREILSRRPSYR. The substrate peptide may be chemically synthesized, recombinantly produced or obtained commercially by the trade name CREBtide. Approximately 9,000 compounds from the DIVERSet collection of the ChemBridge Corporation (San Diego, Calif.) were tested at a final concentration of 100 micromolar, using the Kinase-Glo™ Luminescent Kinase assay (Promega) to measure residual ATP levels after the kinase reaction as described by the manufacturer. Compounds are identified as having inhibitory activity when they reduce PCK zeta activity by at least 50% when tested at a concentration of 100 micromolar."}, "[3]": {"molecular_target": "T1, PKC-zeta", "experiment": "IC50 determination for PKC-zeta", "assay_type": "biochemical", "conditions": "read-out: half-maximal inhibitory concentration, IC50, for PKC-zeta", "protocol": "Methods described in this example are used to determine the half-maximal inhibitory concentration, IC50, of a particular PKC zeta inhibitor. A PKC zeta inhibitor is incubated with […] in vitro by addition of the inhibitor to cultured BREC cells, followed by the addition of a labeled permeability marker, 70 kDa RITC dextran."}, "[4]": {"test_system": "retinal albumin flux after VEGF treatment", "experiment": "In vivo VEGF induced retinal permeability, Evan's blue bound albumin flux", "conditions": "rat, intraocular injection with VEGF 50 ng, 5 h", "source_text": "Vascular permeability is quantified in this in vivo model by measuring albumin leakage form blood vessels into the retina. Evans blue is an acid dye of the diazo group that noncovalently binds to albumin in the blood, allowing the breakdown in blood-retinal barrier to be detected when increased vessel leakage is extravasated into the interstitial space.\nRats are used in this example and each animal is weighed and the body weight (BW) recorded for anaesthetic and dye injections. Each animal is anesthetized by intramuscular injection of 1 microliter/g BW a Ketamine/Xylazine mixture equal to […]/6.67 mg Xylazine/kg BW. […]\nBoth eyes are enucleated and bisected at the equator to harvest the retinas which are optionally dried thoroughly in a Speed-Vac for 5 hours. The weight of the retinas is measured with an analytical balance. […]\nThe obtained plasma samples are diluted 1:10000 with formamide. […] The absorbance in each well is measured at 620 and 740 nm with a plate reader. The background-subtracted absorbance (A620-A740) is calculated for each sample and the dye concentration is determined using the standard curve. […]\nThe PKC-zeta I1 is effective at reducing retinal albumin flux in vivo after VEGF treatment. […] Flux to albumin is measured using the albumin binding dye Evan's blue. […] Evan's blue is eluted from the retinas in formamide and read spectrophotometrically. […]"}, "[5]": {"test_system": "BREC cultures", "experiment": "Invitrogen Live/Dead assay, calcein AM and ethidium homodimer-1", "assay_type": "cell-based", "conditions": "10 micromolar, 24 h, confluent BREC, alone or with VEGF; listed as PKC-zeta I1", "protocol": "Cell viability is measured using the Invitrogen Live/Dead assay according to manufacturer's instructions. Confluent BREC cultures are treated with 10 micromolar PKC-zeta I1 for 24 h. Cell viability is measured with calcein AM incorporation and cell death is measured by ethidium homodimer-1 staining followed by fluorescence quantification on a Molecular Devices Gemini fluorescence plate reader."}}, "note": "Entries after “also recorded” stand apart in the source; their conditions may differ. No end group written: not given here. *: point of attachment. Myristoyl = CCCCCCCCCCCCCC(=O)*"}
{"molecule": "myr-SIYRRGARRWRKL (Myristoyl-SIYRRGARRWRKL)", "values": [{"measurement": "effect on VEGF stimulated endothelial permeability to 70 kDa RITC-dextran", "setting": "[1]; 30 min before tracer, VEGF 50 ng/mL, BREC", "result": "reduces and prevents a VEGF stimulated increase in permeability"}, {"measurement": "effect on VEGF stimulated endothelial permeability to 70 kDa RITC-dextran", "setting": "[1]; 30 min before tracer, VEGF 50 ng/mL, BREC, listed as myristoylated peptide inhibitor of PKC zeta", "result": "reduced or prevented permeability"}, {"measurement": "dose dependence of effect on VEGF stimulated endothelial permeability", "setting": "[1]; peptide inhibitor 6.25, 12.5, 25 and 50 nM, VEGF 50 ng/mL, BREC", "result": "reduces VEGF stimulated endothelial permeability in a dose dependent manner"}]}
{"molecule": "CC(C)OC(=O)c1c(-c2ccc(Cl)c(Cl)c2)csc1N", "note": "[formula (IV)]", "values": [{"measurement": "inhibits PKC zeta with x-fold greater efficacy than the compound of formula (I)", "setting": "[2]", "result": 1.8, "unit": "fold"}]}
{"molecule": "CCOC(=O)c1c(NC(C)=O)sc(C)c1-c1ccc(OC)cc1", "note": "[formula (V)]", "values": [{"measurement": "inhibits PKC zeta with x-fold greater efficacy than the compound of formula (I)", "setting": "[2]", "result": 2.6, "unit": "fold"}]}
{"molecule": "CCOC(=O)c1c(NC(=S)N2CCN(S(C)(=O)=O)CC2)sc(C)c1-c1ccccc1", "note": "[formula (III)]", "values": [{"measurement": "inhibits PKC zeta with x-fold greater efficacy than the compound of formula (I)", "setting": "[2]", "result": 1.2, "unit": "fold"}]}
{"molecule": "CN(C)CCCn1cc(C2=C(c3c[nH]c4ccccc34)C(=O)NC2=O)c2ccccc21", "note": "[bisindoylmaleimide I]", "values": [{"measurement": "effect on VEGF stimulated dextran permeability", "setting": "[1]; bisindoylmaleimide I 5 micromolar, 30 min before tracer, VEGF 50 ng/mL, BREC", "result": "partly reduces VEGF stimulated permeability"}]}
{"molecule": "CCOC(=O)c1c(NC(C)=O)sc(/C(C)=N/O)c1-c1ccccc1", "note": "[formula (I), ethyl (5E)-2-acetylimino-5-[1-(hydroxyamino)ethylidene]-4-phenyl-thiophene-3-carboxylate]", "values": [{"measurement": "IC50", "setting": "[3]", "result": 10, "unit": "µM"}, {"measurement": "effect on VEGF induced endothelial permeability in vitro", "setting": "[1]; PKC-zeta I1 at 10 and 25 micromolar, 30 min before tracer, VEGF 50 ng/mL", "result": "completely blocks VEGF induced endothelial permeability; also recorded: effectively blocks VEGF induced permeability in vitro"}, {"measurement": "effect on baseline endothelial permeability", "setting": "[1]; PKC-zeta I1 at 10 and 25 micromolar, no VEGF", "result": "reduces baseline permeability"}, {"measurement": "reduction of Evan's blue bound albumin flux", "setting": "[4]; about 10 micromolar final concentration in the eye", "result": 50, "unit": "%"}, {"measurement": "effect on VEGF induced permeability in vivo", "setting": "[4]; about 10 micromolar in the eye", "result": "blocks VEGF induced permeability in vivo"}, {"measurement": "cell death (ethidium homodimer-1 staining)", "setting": "[5]", "result": "no increase in cell death; also recorded: does not alter cell viability or increase cell death"}, {"measurement": "cell viability (calcein AM incorporation)", "setting": "[5]", "result": "no loss of cell viability; also recorded: does not alter cell viability"}]}
